Consider 2 compounds from patent US8207091B2, “Methods for improving growth and crop productivity of plants by adjusting plant hormone levels, ratios and/or co-factors” (Stoller Enterprises, Inc., priority 2004, dated 2012).

Common to all, as to format: in vivo
The subject of assay [1] is radish plants. Nature of the assay: Effects of PGR on radish growth (soil applied). Conditions: soil applied at planting and weekly, PGR solution 12 oz/acre, IAA or kinetin 0.84 micrograms per square foot; for Average Leaf Length: largest leaf, 21 days after planting, ± SD of the mean; for Average Hypocotyl Length: measured 21 days after planting, ± standard deviation of the mean. The protocol:
In this experiment, the effects of PGRs on radish growth were observed. A total of eighty (80) plants were used for this experiment. Twenty (20) plants were treated with water as a control. Twenty (20) plants were treated with a PGR solution corresponding to a rate of 12 oz/acre. The PGR solution is an aqueous solution including 0.015% IAA, 0.005% IBA, 0.009% cytokinin and 0.005% gibberellic acid as active ingredients. […] A small measure, 0.0084 ml of this solution, was diluted into 100 ml of water and applied to the soil of a container having a surface area of about 1 square foot to correspond to an application rate of 12 oz/acre. Twenty (20) plants were treated with an auxin solution containing indole-3-acetic acid (IAA) at a rate of 0.84 micrograms in 100 ml water per square foot of surface area of the container. Finally, twenty (20) plants were treated with the cytokinin kinetin at a rate of 0.84 micrograms in 100 ml water per square foot of surface area of the container. Treatments were applied to soil at the time of planting and repeated every week thereafter. Length of the hypocotyl and largest leaf of each plant was measured 21 days after planting. The mean hypocotyl length and leaf length was calculated. Results are tabulated in Table I and illustrated in FIGS. 3 and 4.

Assay [2] has as its system radish plants. The experiment in a line: Radish shoot height, treated twice at four day intervals. The settings on record: IAA and kinetin equivalent to relative amounts in 6 oz/acre PGR solution; two treatments; 15 plants. The protocol: In this portion of the experiment radish plants were treated twice at four day intervals. Plants were treated first on emergence, and again four (4) days later. Measurements were taken one week after the last treatment. Treatments are equivalent to 6 oz/acre, 12 oz/acre, and 24 oz/acre of PGR solution, while the IAA and kinetin treatments are equivalent to the relative amounts in the 6 oz/acre rate of PGR solution. […] The results of these experiments are tabulated in Table II and illustrated in FIG. 5.

The test system of another assay is Tomato variety TSH04. Nature of the assay: Effects of PGRs on tomato fruit weight (greenhouse). Conditions: one truss per plant; 112 days after planting; PGR 6 oz/acre, IAA/kinetin 0.42 or 0.11 micrograms; soil or foliar not told apart. The protocol: In this experiment, the effects of PGRs on tomato yield were determined. Tomato variety TSH04, which is a processing tomato, was used. All plants were grown in five gallon pots in a greenhouse. Eight plants were used for each treatment. Application of the treatments was done aerially to eight plants and in the soil for eight plants to allow comparison of soil versus foliar application of the PGRs. Treatments were 6 oz/acre PGR solution. The treating solutions were prepared by diluting 0.0042 ml of concentrated solution into 100 ml water for application to the soil, or into 50 ml water for foliar application. The IAA solution was prepared by diluting 0.42 micrograms of IAA into 100 ml water for application to the soil, or into 50 ml water for foliar application. The cytokinin solution was prepared by diluting 0.42 micrograms of kinetin into 100 ml water for application to the soil, or into 50 ml water for spraying of the foliage. The solution containing both IAA and kinetin at a 1:1 ratio was prepared by diluting 0.42 micrograms of IAA and 0.42 micrograms of kinetin into 100 ml water for application to the soil, or into 50 ml water for foliar application. A solution containing both IAA and kinetin at a 4:1 ratio was prepared by diluting 0.42 micrograms of IAA and 0.11 micrograms of kinetin into 100 ml water for soil application, or into 50 ml water for foliar application. Finally, a solution containing both IAA and kinetin at a 1:4 ratio was prepared by diluting 0.11 micrograms of IAA and 0.42 micrograms of kinetin into 100 ml water for soil application, or into 50 ml water for foliar application. Water was employed as a control. Plants were kept pruned to one fruiting truss per plant and the weight of the fruit from each plant was measured when most of the fruit had ripened (112 days after planting). FIGS. 6 and 7 illustrate the increased fruit weight achieved, respectively, for total and individual fruits with each treatment.

The test system of assay [3] is National pickling cucumber. Nature of the assay: Effects of PGRs on cucumber internode length, 21 days. The settings on record: soil applied weekly, 21 days after planting; for Internode 1 length: first (bottom) internode, 6 oz/acre or 0.42 micrograms; for Internode 2 length: second (middle) internode; for Internode 3 length: third (top) internode. As for the experimental part: In this experiment, the effect of PGRs on cucumber internode length was determined. The cucumber variety used was the National pickling cucumber distributed by NK Lawn & Garden Co. (Chattanooga, Tenn.). Eight plants were used per treatment. Treatments were applied to the soil of each five-gallon pot containing one plant per pot. Treatments were 6 oz/acre PGR solution. The final PGR solution was prepared by diluting 0.0042 ml of the concentrated solution into 100 ml water. The IAA solution was prepared by diluting 0.42 micrograms of IAA into 100 ml water. The cytokinin solution was prepared by diluting 0.42 micrograms of kinetin into 100 ml water. Finally, plants were treated with 6 oz/acre N-Large. The treating solution was prepared by diluting 0.0042 ml of the commercial solution into 100 ml water. N-Large is a formulation containing 4 percent gibberellin (GA3). Water was used as a control. Treatments were applied to the soil at the time of planting, and weekly thereafter. Twenty-one (21) days after planting, the internode length of the first (bottom), second (middle), and third (top) internodes were measured to the nearest millimeter. The average internode length for first, second, and third internodes was calculated for each treatment. Results are tabulated in Table IV and illustrated in FIG. 8.

The test system of assay [4] is National pickling cucumber. Nature of the assay: Effects of PGRs on cucumber vines and fruit, 84 days. Conditions: for Average Branch Number / Average Internode Number / Average Vine Length: 84 days after planting; for Average Internode Length: 84 days, vine length divided by internode number; for Average Cucumber Weight: harvested 84 days after planting.

With `c1coc(CNc2ncnc3[nH]cnc23)c1` [Cytokinin, kinetin], in the assay with radish plants [1], the “Average Leaf Length” value came to 101.25 ± 4.46 mm and the “Average Hypocotyl Length” value stood at 46.10 ± 3.10 mm. Also, the “Shoot Height Foliar Applied” value in the assay on radish plants [2] came to 89.00 ± 4.55 mm. In addition, in the assay on Tomato variety TSH04, the “Average total fruit weight per plant” value worked out at 89.08 ± 6.85 grams and the “Average weight of each fruit” value is listed as 14.76 ± 2.47 grams. For the same compound, in assay [3], the “Internode 1 length” value amounted to 106.38 ± 3.98 millimeters, the “Internode 2 length” value was found to be 20.25 ± 3.40 millimeters and the “Internode 3 length” value was determined as 2.13 ± 1.25 millimeters. Further, in assay [4], the “Average Branch Number” value turned out to be 6.25 ± 2.27, the “Average Internode Number” value is 30.50 ± 1.75, the “Average Vine Length” value was 255.50 ± 5.61 mm and the “Average Internode Length” value is recorded as 8.37 ± 0.62 mm. In assay [4], the “Average Cucumber Weight” value was determined as 229.71 ± 1.33 gm.

For `O=C(O)Cc1c[nH]c2ccccc12` [Auxin, indole-3-acetic acid], in the assay on radish plants [1], the “Average Leaf Length” value is recorded as 121.15 ± 5.20 mm and the “Average Hypocotyl Length” value is 51.15 ± 2.64 mm. The “Shoot Height Foliar Applied” value with radish plants [2] amounted to 91.46 ± 4.20 mm. In addition, in the assay with Tomato variety TSH04, the “Average total fruit weight per plant” value was 63.79 ± 7.59 grams and the “Average weight of each fruit” value was 11.45 ± 1.99 grams. Besides, in assay [3], the “Internode 1 length” value is 115.88 ± 4.01 millimeters, the “Internode 2 length” value is 25.38 ± 3.13 millimeters and the “Internode 3 length” value came out at 4.50 ± 1.91 millimeters. In addition, in assay [4], the “Average Branch Number” value was determined as 7.25 ± 1.86, the “Average Internode Number” value stood at 30.75 ± 1.96, the “Average Vine Length” value was determined as 267.00 ± 5.70 mm and the “Average Internode Length” value came to 8.72 ± 0.87 mm. The “Average Cucumber Weight” value in assay [4] worked out at 311.98 ± 9.17 gm.
